Assay results: publication PMC10299916, “A multi-enzyme machine polymerizes the Haemophilus influenzae type b capsule” (Nature Chemical Biology, 2023)

Assays:
PrsA = target: T1, PrsA (Haemophilus influenzae, UniProt P44328); test: HPLC-AEC; assay type: biochemical; conditions: Mg2+, pH 8.0, 37 °C
T1 construct: gene prs; recombinant, E. coli M15; cloned in MBP-S3N10-...-His6 vector

Bcs3 = target: T2, Bcs3 (Haemophilus influenzae, UniProt Q2ERG0); test: HPLC-AEC and Alcian blue PAGE of polymer formation; assay type: biochemical; conditions: Mg2+, pH 8.0, 37 °C
T2 construct: full length, 1,215 residues; N-terminal MBP-S3N10 and C-terminal His6 fusion; E. coli M15

Bcs1 = target: T3, Bcs1 (Haemophilus influenzae, UniProt Q48230); test: HPLC-AEC; assay type: biochemical; conditions: 5 mM, CTP, Mg2+, pH 8.0, 37 °C
T3 construct: recombinant, E. coli M15; cloned in MBP-S3N10-...-His6 vector

[1] = target: Bcs3 crystallization construct MBP-Bcs3_(2–1162)-His6 after PreScission digest (Bcs3-His6) (Haemophilus influenzae serotype b (strain ATCC 10211)) (UniProt Q2ERG0); test: crystal structure

Compound: Nc1ncnc2c1ncn2[C@@H]1O[C@H](COP(=O)(O)OP(=O)(O)OP(=O)(O)O)[C@@H](O)[C@H]1O [ATP]
- HPLC-AEC (PrsA; ribose-5-phosphate): (c) PrsA using ATP, CTP or UTP as donor substrate

Compound: Nc1ccn([C@@H]2O[C@H](COP(=O)(O)OP(=O)(O)OC[C@@H](O)[C@@H](O)[C@@H](O)CO)[C@@H](O)[C@H]2O)c(=O)n1 [CDP-ribitol]
- HPLC-AEC and Alcian blue PAGE of polymer formation (Bcs3; generated in situ by RpiA and Bcs1, with PRPP, CroT donor): CDP-ribitol was only used up in the presence of PRPP, with concomitant production of CMP

Compound: O=P(O)(O)OC[C@H]1OC(O)[C@H](O)[C@@H]1O (stereo partly drawn) [D-ribose-5-phosphate]
- HPLC-AEC (PrsA; ATP): The reaction cascade (e, f) was started with (e) Rib or (f) Rib-5P

Compound: NC(=O)C1=CN([C@@H]2O[C@H](COP(=O)(O)OP(=O)(O)OC[C@H]3O[C@@H](n4cnc5c(N)ncnc54)[C@H](OP(=O)(O)O)[C@@H]3O)[C@@H](O)[C@H]2O)C=CC1 [NADPH]
- HPLC-AEC (Bcs1; ribulose-5-phosphate): presence of Bcs1 in a reaction containing ribulose-5-phosphate led to the consumption of NADPH

Compound: O=P(O)(O)OC[C@H]1O[C@H](OP(=O)(O)OP(=O)(O)O)[C@H](O)[C@@H]1O [PRPP, 5-phospho-α-D-ribose-1-diphosphate]
- HPLC-AEC and Alcian blue PAGE of polymer formation (Bcs3; 5 mM, CDP-ribitol generated in situ by RpiA and Bcs1, CriT donor): Thus, we concluded that PRPP is the donor substrate for Bcs3.

Compound: O=C(CO)[C@H](O)[C@H](O)COP(=O)(O)O [ribulose-5-phosphate]
- HPLC-AEC (Bcs1; NADPH): presence of Bcs1 in a reaction containing ribulose-5-phosphate led to the consumption of NADPH

Compound: Bcs3 crystallization construct MBP-Bcs3_(2–1162)-His6 after PreScission digest (Bcs3-His6) (from UniProt Q2ERG0 2-1162) (enzyme)
- stoichiometry N [1]: 2
